“Also recorded” adds a separate entry of the source.
Assays:
[1] = test system: Neonatal Rat Ventricular Myocytes (NRVMs); assay: Serum (FBS)-induced hypertrophy of Neonatal Rat Ventricular Myocytes in vitro; type: cell-based
Protocol: The cells were also treated with DMSO (light gray bars) or a vehicle (dark gray bars) as a negative control. The order of potency for inhibitors was DMSO<7MI<TSA<8MI. Viability was unchanged (not shown).
Next, the ability of 7MI and 8MI to inhibit hypertrophy in vitro was tested (FIG. 2A). […] However, fetal calf serum, which contained a rich variety of growth factors, was chosen as the most robust and multifactorial stimulus for cardiomyocyte growth available, reasoning that a similarly robust and powerful inhibitor would be required to block this hypertrophy.

[2] = test system: cardiac function after TAC in mice; assay: Echocardiography of cardiac function 21 days post TAC (Example 8); type: in vivo
Protocol: Masson's Trichrome was used to visualize cardiac four-chamber anatomy. Paraffin embedded sections were used for staining (FIG. 5B). Representative wheat germ agglutinin (WGA)-stained sections of myocardium from the mice were prepared. For echocardiography (FIG. 5C), mice were placed under anesthesia with 40 mg/kg ketamine and 5 mg/kg xylocaine and secured in a supine position. Mice were evaluated using […] transducer on a Visual Sonics 770 High Resolution Imaging System. B-mode in the short and long axis view of the ventricle was used to evaluate wall motion defects of ventricle and M-mode in long axis view used for the interventricular septal thickness, posterior wall thickness and the left ventricular dimensions in systole and diastole.
Echocardiographic studies were performed on the mice to examine systolic function under the experimental conditions described in Example 4. […] As expected, TAC induced a 37% fall in ejection fraction at 21 days (sham, 82.4±1.8% vs. TAC, 51.7±5.1%) (FIG. 8A). […] The mice maintained a near-normal ejection fraction of 75.4% at the highest dose of 8MI (FIG. 8A). […] LV end diastolic diameter (LViDd) (FIG. 8D), LV end-systolic diameter (LViDs) (FIG. 8E), LV systolic volume (LV Vs) (FIG. 8F), and LV diastolic volume (LV Vd) (FIG. 8G) were increased by TAC and diminished in the presence of 8MI. […] Heart rate was unaffected in all mice (FIG. 8H).

[3] = 21 days post TAC, depressed by TAC
[4] = 21 days post TAC, increased by TAC

Nc1ccccc1NC(=O)CCCCCC(=O)Nc1cccc(Br)c1 [8MI] was tested, and the viability ([1]; NRVMs (not shown)) was “unchanged”, the “order of potency for inhibitors” value ([1]; NRVMs, FBS-induced growth) was “most potent inhibitor; also recorded: DMSO<7MI<TSA<8MI” and the “growth response to Fetal Bovine Serum / serum-stimulated myocyte growth (hypertrophy)” value ([1]; NRVMs, pre-treatment with a range of doses) was “sufficient to block myocyte hypertrophy; also recorded: depressed growth response”. For the same compound, the “systolic function / cardiac function under sustained pressure overload” value ([2]; 21 days post TAC, 5, 20 and 40 mg/kg, dose-dependent) was “preserved systolic function; also recorded: preservation of cardiac function”, the ejection fraction ([2]; 21 days post TAC, highest dose of 8MI (sham 82.4±1.8%, TAC 51.7±5.1%)) was 75.4% and the “fractional shortening (FS)” value [2, 3] was “similarly restored”. The stroke volume [2, 3] was “similarly restored”, the “LV end diastolic diameter (LViDd)” value [2, 4] was “diminished” and the “LV end-systolic diameter (LViDs)” value [2, 4] was “diminished”. For the same compound, the “LV systolic volume (LV Vs)” value [2, 4] was “diminished”, the heart rate ([2]; all mice, 21 days) was “unaffected” and the “cardiac function in sham-operated mice” value ([2]; sham-operated mice treated with 8MI) was “normal cardiac function”.
